{"source": "patent US10159670B2", "about": "“Methods of diagnosing and treating motor neuron diseases and other cellular stress-related diseases” (priority 2012, dated 2018)", "test_system": "eIF2a", "assay": "Western blot of eIF2a S51 phosphorylation in NSC-34 cells", "assay_type": "cell-based", "details": "0.5 mM; 1 hr", "description": "(FIG. 7A) miRNA expression level analysis in the motor neuron cell line NSC-34, treated with 6.25 nM Thapsigargin for 24 hrs, relative to cells treated with carrier alone (DMSO). Shown are average and s.d. of qPCR analyses of 3 independent experiments. Pre-miRNAs (light grey, normalized to Gapdh) and miRNAs (dark grey, normalized to Snord68). (FIG. 7B) mRNA levels encoding for proteins involved in the canonical stress response, normalized to the expression of beta-actin. (FIG. 7C) miRNA expression level analysis in mouse embryonic motor neurons, treated with 5 nM Thapsigargin for 72 hrs, relative to cells treated with carrier alone (DMSO). Shown are average and s.d. of qPCR analyses of three independent experiments. Pre-miRNAs (light grey, normalized to Gapdh and beta actin) and miRNAs (dark grey, normalized to Snord70). (FIG. 7D) mRNA markers of the canonical stress response, normalized to the expression of beta-actin. miRNA expression level analysis in NSC-34 cells, treated with Paraquat (PQ) (1 mM, 12 hrs, FIG. 7E) and sodium arsenite (0.5 mM, 60 min, FIG. 7F). pre-miRNA normalized to beta-actin mRNA (FIGS. 7E-F) and miRNAs to 5S (FIG. 7E) or to U6 and 5S (FIG. 7F). (FIGS. 7G-I) miRNA expression level analysis in mouse embryonic Wild-type fibroblasts (light grey) or phospho-mutant eIF2a S51A cells (black) treated with Thapsigargin (5 nM, 72 hrs) relative to carrier alone. […]"}
{"smiles": "O=[As]O", "note": "[sodium arsenite]", "values": [{"measurement": "phosphorylation of eIF2a", "value": "sufficient to induce the phosphorylation of eIF2a"}]}
